One test concerns the target human P2X2/3 receptor (Homo sapiens (Human), UniProt P56373+Q9UBL9). Kind of test: Inhibitory activity on human P2X2/3 receptor (calcium 6 dye FLIPR assay, agonist α,β-MeATP). The test is classed as cell-based. The note with it: HEK293-P2X2/3 stably expressing cell line, FLIPR Tetra. The procedure: (§1) Biological Assay: Determination of the Inhibitory Activity of the Compounds on Human P2X3 and P2X2/3 Receptors
(§2) Cells were seeded into a poly-D-lysine-coated 384-well cell culture plate (Corning) at a density of 11,000 cells/well/25 μL of cell inoculation medium, and were cultured in a cell incubator overnight. On the day of the test, the calcium 6 dye was diluted to a 2× concentration with a assay buffer, 25 μL of the 2× calcium 6 dye was added to the 384-well cell culture plate, which was incubated at 37° C. for 2 hours, and then placed at room temperature for further use. The test compound and the agonist, α,β-MeATP were diluted to a 7× concentration with the assay buffer, 10 μL of the 7× test compound was added to the 384-well cell culture plate, which was incubated at room temperature for 15 minutes, and 10 μL of the 7× α,β-MeATP was transferred into the 384-well cell culture plate. The data were measured and analyzed using FLIPR Tetra, and the half inhibitory concentration (IC50) of the test compound on P2X3 and P2X2/3 receptors was calculated with the GraphPad Prism four-parameter equation.
(§3) Cell lines: human embryonic kidney cells HEK293-P2X3 and HEK293-P2X2/3 stably expressing cell lines;
(§4) Complete cell culture medium: DMEM High Glucose (Life Technology), which contained 10% fetal bovine serum, 4 mM GlutaMAX, 1% penicillin-streptomycin, and 350 μg/mL G418;
(§5) Cell inoculation medium: DMEM High Glucose (Life Technology), which contained 2% fetal bovine serum, and 4 mM GlutaMAX;
(§6) Cell culture conditions: 37° C., 5% CO2;
(§7) Assay buffer: HBSS (containing calcium and magnesium ions), which contained 20 mM HEPES;
(§8) Detection equipment: FLIPR Tetra (Molecular Devices);

The next test deals with human P2X3 receptor (Homo sapiens (Human), UniProt P56373). In words: Inhibitory activity on human P2X3 receptor (calcium 6 dye FLIPR assay, agonist α,β-MeATP). The test is classed as cell-based. The note with it: HEK293-P2X3 stably expressing cell line, FLIPR Tetra. As for the experimental part: as §1, §2, §3, §4, §5, §6, §7, §8
Sequence of human P2X3 receptor (P56373 whole entry): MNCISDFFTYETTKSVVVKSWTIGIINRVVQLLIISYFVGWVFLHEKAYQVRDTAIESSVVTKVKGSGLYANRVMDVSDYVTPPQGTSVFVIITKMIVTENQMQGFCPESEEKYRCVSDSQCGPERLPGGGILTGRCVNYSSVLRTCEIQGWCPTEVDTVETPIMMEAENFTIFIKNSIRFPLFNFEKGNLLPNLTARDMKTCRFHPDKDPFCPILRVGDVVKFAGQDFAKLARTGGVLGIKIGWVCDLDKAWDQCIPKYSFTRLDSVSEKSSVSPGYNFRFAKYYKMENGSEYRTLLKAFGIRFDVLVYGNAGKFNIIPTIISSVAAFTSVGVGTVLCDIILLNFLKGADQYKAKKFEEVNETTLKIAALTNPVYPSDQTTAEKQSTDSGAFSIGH

Our source for the IC50 values is patent publication US11919918B2, “P2X3 andor P2X2/3 receptor antagonist, pharmaceutical composition comprising same, and use thereof” (BEIJING TIDE PHARMACEUTICAL CO., LTD., priority 2017, dated 2024).

By IC50 is commonly meant the concentration needed to halve the response being measured.

Sequence of human P2X2/3 receptor (Q9UBL9 whole entry): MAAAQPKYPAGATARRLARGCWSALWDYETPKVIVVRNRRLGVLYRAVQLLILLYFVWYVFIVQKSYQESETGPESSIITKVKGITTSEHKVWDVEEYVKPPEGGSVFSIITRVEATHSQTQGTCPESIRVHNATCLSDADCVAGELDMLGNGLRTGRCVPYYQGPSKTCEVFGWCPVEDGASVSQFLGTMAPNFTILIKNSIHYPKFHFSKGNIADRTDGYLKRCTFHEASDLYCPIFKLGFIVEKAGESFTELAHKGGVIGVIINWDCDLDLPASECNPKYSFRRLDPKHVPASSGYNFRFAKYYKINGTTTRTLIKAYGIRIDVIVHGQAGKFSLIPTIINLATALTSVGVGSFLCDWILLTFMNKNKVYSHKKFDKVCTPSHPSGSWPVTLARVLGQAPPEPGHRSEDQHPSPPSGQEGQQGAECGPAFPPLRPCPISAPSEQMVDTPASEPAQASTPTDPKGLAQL
Sequence of human P2X2/3 receptor (P56373 whole entry): as the sequence (P56373 whole entry) above

For the molecule `CCN(C)c1cc(Oc2cnc(N)nc2N)c(C(C)C)cn1` [Compound C61, 5-((2-(ethyl(methyl)amino)-5-isopropylpyridin-4-yl)oxy)pyrimidine-2,4-diamine], the results for the half-maximal inhibitory concentration (IC50) at human P2X2/3 receptor and at human P2X3 receptor were 592 nM and 274 nM, respectively.
On to `CCc1cc(Sc2cnc(N)nc2N)c(C(C)C)cn1` [Compound C127, 5-((2-ethyl-5-isopropylpyridin-4-yl)thio)pyrimidine-2,4-diamine], for which the values for the IC50 at human P2X2/3 receptor and on human P2X3 receptor were 234 nM and 147 nM, respectively.
With `CCNc1cc(Oc2cnc(N)nc2N)c(C(C)C)cn1` [Compound C118, 5-((2-(ethylamino)-5-isopropylpyridin-4-yl)oxy) pyrimidine-2,4-diamine], the figures for the concentration for half-maximal inhibition (IC50) on human P2X2/3 receptor and on human P2X3 receptor were 366 nM and 142 nM, respectively.
As to `CC(C)c1cnc(Br)cc1Sc1cnc(N)nc1N` [Compound C85, 5-((2-bromo-5-isopropylpyridin-4-yl)thio)pyrimidine-2,4-diamine], the 50% inhibitory concentration (IC50) was determined as 205 nM on human P2X2/3 receptor and 78 nM on human P2X3 receptor.
The corresponding values for `C#Cc1cc(Oc2cnc(NC(C)C)nc2N)c(C(C)C)cn1` [Compound C233, 5-((2-ethynyl-5-isopropyl-pyrdin-4-yl)oxy)-N^2-isopropyl-pyrmidine-2,4-diamine] are 125 nM and 72 nM.
The corresponding values for `CNc1cc(Oc2cnc(N)nc2N)c(C(C)C)cn1` [Compound C22, 5-((5-isopropyl-2-(methylamino)pyridin-4-yl)oxy)pyrimidine-2,4-diamine] are 57 nM and 37 nM.
The corresponding values for `CCNc1nc(N)ncc1Oc1cc(Br)ncc1C(C)C` [Compound C173, 5-((2-bromo-5-isopropylpyridin-4-yl)oxy)-N^4-ethylpyrimidine-2,4-diamine] are 259 nM and 188 nM.
As to `CC(C)c1cnc(Cl)cc1Oc1cnc(NC(CO)CO)nc1N` [Compound C218, 2-((4-amino-5-((2-chloro-5-isopropyl-pyridin-4-yl)oxy)pyrimidin-2-yl)amino) propane-1,3-diol], the concentration for half-maximal inhibition (IC50) on human P2X2/3 receptor is 383 nM; at human P2X3 receptor, 186 nM.
The corresponding values for `CC(C)c1cnc(Cl)cc1Oc1cnc(N)nc1N` [Compound C3, 5-((2-chloro-5-isopropylpyridin-4-yl)oxy)pyrimidine-2,4-diamine] are 341 nM and 205 nM.
The corresponding values for `C=C(C)c1cc(Oc2cnc(N)nc2N)c(C(C)C)cn1` [Compound C44] are 423 nM and 116 nM.
As for `CC(C)c1cnc(N(C)C)cc1Oc1cnc(N)nc1N` [Compound C23, 5-((2-(dimethylamino)-5-isopropylpyridin-4-yl)oxy)pyrimidine-2,4-diamine], the IC50 on human P2X2/3 receptor was 644 nM; at human P2X3 receptor, 365 nM.
The corresponding values for `CCSc1cc(Oc2cnc(N)nc2N)c(C(C)C)cn1` [Compound C117, 5-((2-(ethylthio)-5-isopropylpyridin-4-yl)oxy)pyrimidine-2,4-diamine] are 487 nM and 151 nM.
As to `CNc1nc(N)ncc1Oc1cc(Br)ncc1C(C)C` [Compound C172, 5-((2-bromo-5-isopropylpyridin-4-yl)oxy)-N^4-methyl-pyrimidine-2,4-diamine], the results for the concentration for half-maximal inhibition (IC50) on human P2X2/3 receptor and on human P2X3 receptor were 209 nM and 116 nM, respectively.
Regarding `COc1ccc(C#Cc2cc(Oc3cnc(N)nc3N)c(C(C)C)cn2)cc1` [Compound C136, 5-((5-isopropyl-2-((4-methoxyphenyl)ethynyl)pyridin-4-yl)oxy) pyrimidine-2,4-diamine], the IC50 turned out to be 416 nM on human P2X2/3 receptor and 270 nM at human P2X3 receptor.
The corresponding values for `C=C(C)c1cnc(OC)cc1Oc1cnc(N)nc1N` [Compound C164, 5-((2-methoxy-5-(prop-1-en-2-yl)pyridin-4-yl)oxy) pyrimidine-2,4-diamine] are 71 nM and 46 nM.
The corresponding values for `COc1cc(Oc2cnc(N)nc2N)c(C2CC2)cn1` [Compound C33, 5-((5-cyclopropyl-2-methoxypyridin-4-yl)oxy) pyrimidine-2,4-diamine] are 262 nM and 238 nM.
In the case of `C=Cc1cc(Oc2cnc(N)nc2N)c(C(C)C)cn1` [Compound C43], the IC50 amounted to 180 nM at human P2X2/3 receptor and 55 nM at human P2X3 receptor.
Regarding `C=Cc1cnc(OC)cc1Oc1cnc(N)nc1N` [Compound C162, 5-((2-methoxy-5-vinylpyridin-4-yl)oxy) pyrimidine-2,4-diamine], the 50% inhibitory concentration (IC50) at human P2X2/3 receptor turned out to be 429 nM; at human P2X3 receptor, 296 nM.
The corresponding values for `CC(C)c1cnc(Br)cc1Oc1cnc(N)nc1NC1CCCCC1` [Compound C180, 5-((2-bromo-5-isopropylpyridin-4-yl)oxy)-N^4-cyclohexyl-pyrimidine-2,4-diamine] are 220 nM and 207 nM.
For `CNc1ncc(Oc2cc(Br)ncc2C(C)C)c(N)n1` [Compound C237, 5-((2-bromo-5-isopropylpyridin-4-yl)oxy)-N^2-methylpyrimidine-2,4-diamine], the values for the concentration for half-maximal inhibition (IC50) on human P2X2/3 receptor and at human P2X3 receptor were 781 nM and 363 nM, respectively.
The corresponding values for `CC(C)c1cnc(-c2ccco2)cc1Oc1cnc(N)nc1N` [Compound C39, 5-((2-(furan-2-yl)-5-isopropylpyridin-4-yl)oxy)pyrimidine-2,4-diamine] are 243 nM and 166 nM.
In the case of `CC(C)c1cnc(Br)cc1Oc1cnc(NC2CC2)nc1N` [Compound C238, 5-((2-bromo-5-isopropylpyridin-4-yl)oxy)-N^2-cyclopropyl-pyrimidine-2,4-diamine], the IC50 at human P2X2/3 receptor turned out to be 206 nM; on human P2X3 receptor, 104 nM.
As to `CC(C)c1cnc([Si](C)(C)C)cc1Oc1cnc(N)nc1N` [Compound C133, 5-((5-isopropyl-2-(trimethylsilyl)pyridin-4-yl)oxy)pyrimidine-2,4-diamine], the figures for the half-inhibitory concentration (IC50) on human P2X2/3 receptor and at human P2X3 receptor were 770 nM and 1440 nM, respectively.
As for `CC(C)c1cnc(Br)cc1Oc1cnc(N)nc1NCCN1CCCC1` [Compound C210, 5-((2-bromo-5-isopropylpyridin-4-yl)oxy)-N^4-(2-(pyrrolidin-1-yl)ethyl) pyrimidine-2,4-diamine], the IC50 at human P2X2/3 receptor came out at 399 nM; on human P2X3 receptor, 269 nM.
`CC(C)c1cnc(Br)cc1Oc1cnc(N)nc1NC(CO)CO` [Compound C153, 2-((2-amino-5-((2-bromo-5-isopropylpyridin-4-yl)oxy)pyrimidin-4-yl)amino) propane-1,3-diol]: the IC50 on human P2X2/3 receptor came out at 96 nM; on human P2X3 receptor, 83 nM.
For the molecule `CC(C)c1cnc(NC2CC2)cc1Oc1cnc(N)nc1N` [Compound C119, 5-((2-(cyclopropylamino)-5-isopropylpyridin-4-yl)oxy)pyrimidine-2,4-diamine], the IC50 at human P2X2/3 receptor turned out to be 505 nM; on human P2X3 receptor, 540 nM.
The corresponding values for `CC(C)c1cnc(CN)cc1Oc1cnc(N)nc1N` [Compound C157, 5-((2-(aminomethyl)-5-isopropylpyridin-4-yl)oxy)pyrimidine-2,4-diamine] are 978 nM and 736 nM.
The corresponding values for `CC(C)c1cnc(N)cc1Oc1cnc(N)nc1N` [Compound C21, 5-((2-amino-5-isopropylpyridin-4-yl)oxy)pyrimidine-2,4-diamine] are 200 nM and 131 nM.
The corresponding values for `C#Cc1cc(Oc2cnc(NC(CO)CO)nc2N)c(C(C)C)cn1` [Compound C228, 2-((4-amino-5-((2-ethynyl-5-isopropyl-pyrdin-4-yl)oxy)pyrimidin-2-yl)amino) propane-1,3-diol] are 125 nM and 119 nM.
Regarding `CC(C)c1cnc(Br)cc1Oc1cnc(N)nc1NCCN1CCOCC1` [Compound C203, 5-((2-bromo-5-isopropylpyridin-4-yl)oxy)-N^4-(2-morpholinoethyl) pyrimidine-2,4-diamine], the concentration for half-maximal inhibition (IC50) at human P2X2/3 receptor was determined as 275 nM; on human P2X3 receptor it was 157 nM.
The corresponding values for `C=C(C)c1cnc(NC)cc1Oc1cnc(N)nc1N` [C192] are 69 nM and 53 nM.
Turning to `CC(C)c1cnc(Br)cc1Oc1cnc(N)nc1NCCO` [Compound C175, 2-((2-amino-5-((2-bromo-5-isopropylpyridin-4-yl)oxy)pyrimidin-4-yl)amino)ethanol.], the IC50 on human P2X2/3 receptor is 141 nM; at human P2X3 receptor, 108 nM.
The corresponding values for `CC(C)CNc1nc(N)ncc1Oc1cc(C2CC2)ncc1C(C)C` [Compound C194, 5-((2-cyclopropyl-5-isopropyl-pyridin-4-yl)oxy)-N^4-isobutyl-pyrimidine-2,4-diamine] are 446 nM and 322 nM.
Consider `CC(C)c1cnc(Br)cc1Oc1cnc(NCC(O)CO)nc1N` (centres unmarked) [Compound C235, 3-((4-amino-5-((2-bromo-5-isopropyl-pyridin-4-yl)oxy)pyrimidin-2-yl)amino) propane-1,2-diol], for which the IC50 at human P2X2/3 receptor was 145 nM; at human P2X3 receptor, 90 nM.
